Test results: patent publication US9708316B2 (BRISTOL-MYERS SQUIBB COMPANY, priority 2014, dated 2017)

Key:
HIS-TGFβR2 WT = HIS-TGFβR2 WT (Homo sapiens, UniProt P37173); test: HTRF probe-displacement assay, HIS-TGFβR2 WT; assay type: binding
HIS-TGFβR1 T204D = biological target: T1, HIS-TGFβR1 T204D (Homo sapiens, UniProt P36897, T204D); test: HTRF probe-displacement assay, HIS-TGFβR1 T204D; assay type: binding; settings: read-out: TGFβR1 (μM) IC50
T1 sequence (P36897 34-503 T204D): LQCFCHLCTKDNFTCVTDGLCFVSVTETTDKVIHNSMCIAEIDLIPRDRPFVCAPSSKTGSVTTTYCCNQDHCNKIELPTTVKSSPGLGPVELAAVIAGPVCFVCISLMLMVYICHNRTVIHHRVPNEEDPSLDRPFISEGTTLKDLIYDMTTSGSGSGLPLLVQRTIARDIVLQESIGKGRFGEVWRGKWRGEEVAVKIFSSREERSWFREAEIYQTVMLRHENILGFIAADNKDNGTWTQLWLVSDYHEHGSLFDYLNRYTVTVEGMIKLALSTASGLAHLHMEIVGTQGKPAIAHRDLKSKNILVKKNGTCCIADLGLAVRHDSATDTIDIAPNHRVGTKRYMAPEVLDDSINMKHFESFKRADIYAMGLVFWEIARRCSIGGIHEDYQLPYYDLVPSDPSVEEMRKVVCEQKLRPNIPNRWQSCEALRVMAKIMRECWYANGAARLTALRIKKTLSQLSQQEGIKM

Sequence of HIS-TGFβR2 WT (P37173 23-567): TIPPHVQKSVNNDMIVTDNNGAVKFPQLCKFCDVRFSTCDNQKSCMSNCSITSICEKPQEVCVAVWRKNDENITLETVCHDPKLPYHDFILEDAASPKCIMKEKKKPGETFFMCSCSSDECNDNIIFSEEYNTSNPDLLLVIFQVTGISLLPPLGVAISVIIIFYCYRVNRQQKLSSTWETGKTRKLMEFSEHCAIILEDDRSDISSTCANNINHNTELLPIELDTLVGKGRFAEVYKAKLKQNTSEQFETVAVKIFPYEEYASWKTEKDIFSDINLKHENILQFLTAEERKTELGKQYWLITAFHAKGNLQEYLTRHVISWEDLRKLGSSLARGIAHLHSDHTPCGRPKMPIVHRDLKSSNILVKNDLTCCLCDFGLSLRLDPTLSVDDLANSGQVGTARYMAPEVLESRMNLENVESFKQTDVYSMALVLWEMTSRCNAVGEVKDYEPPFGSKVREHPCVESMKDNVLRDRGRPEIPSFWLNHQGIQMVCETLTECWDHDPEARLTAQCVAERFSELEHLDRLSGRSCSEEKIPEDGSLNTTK

Compound | IC50 (HIS-TGFβR2 WT) [µM] | IC50 (HIS-TGFβR1 T204D) [µM]
CCCc1ccnc2c(-c3cccc(C(F)F)n3)c(-c3ccnc(NC(C)=O)c3)[nH]c12 [Example 132, N-(4-{3-[6-(Difluoromethyl)pyridin-2-yl]-7-propyl-1H-pyrrolo[3,2-b]pyridin-2-yl}pyridin-2-yl)acetamide] | > 15 | 0.001
CC(=O)Nc1cc(-c2[nH]c3c(C(C)C)ccnc3c2-c2cccc(C(F)F)n2)ccn1 [Example 133, N-(4-{3-[6-(Difluoromethyl)pyridin-2-yl]-7-(propan-2-yl)-1H-pyrrolo[3,2-b]pyridin-2-yl}pyridin-2-yl)acetamide] | > 15 | 0.001
CC(=O)Nc1cc(-c2[nH]c3c(C4CCCCO4)ccnc3c2-c2cccc(C(F)F)n2)ccn1 (centres unmarked) [Example 134, N-(4-{3-[6-(Difluoromethyl)pyridin-2-yl]-7-(oxan-2-yl)-1H-pyrrolo[3,2-b]pyridin-2-yl}pyridin-2-yl)acetamide] | 8.66 | 0.004
CC(=O)Nc1cc(-c2[nH]c3c(C4CCOCC4)ccnc3c2-c2cccc(C(F)F)n2)ccn1 [Example 135, N-(4-{3-[6-(Difluoromethyl)pyridin-2-yl]-7-(oxan-4-yl)-1H-pyrrolo[3,2-b]pyridin-2-yl}pyridin-2-yl)acetamide] | > 15 | 0.003
CC(=O)Nc1cc(-c2[nH]c3c(C4CCOCC4)ccnc3c2-c2cccc(C)n2)ccn1 [Example 136, N-{4-[3-(6-Methylpyridin-2-yl)-7-(oxan-4-yl)-1H-pyrrolo[3,2-b]pyridin-2-yl]pyridin-2-yl}acetamide] | > 15 | 0.006
CC(=O)Nc1cc(-c2[nH]c3c(C4CCN(C)CC4)ccnc3c2-c2cccc(C(F)F)n2)ccn1 [Example 137, N-(4-{3-[6-(Difluoromethyl)pyridin-2-yl]-7-(1-methylpiperidin-4-yl)-1H-pyrrolo[3,2-b]pyridin-2-yl}pyridin-2-yl)acetamide] | > 15 | 0.058
CC(=O)Nc1cc(-c2[nH]c3c(C4CCN(C)CC4)ccnc3c2-c2cccc(C)n2)ccn1 [Example 138, N-{4-[7-(1-Methylpiperidin-4-yl)-3-(6-methylpyridin-2-yl)-1H-pyrrolo[3,2-b]pyridin-2-yl]pyridin-2-yl}acetamide] | > 15 | 0.2
CC(=O)Nc1cc(-c2[nH]c3c(CN4CCN(C)CC4)ccnc3c2-c2cccc(C(F)F)n2)ccn1 [Example 139, N-(4-{3-[6-(Difluoromethyl)pyridin-2-yl]-7-[(4-methylpiperazin-1-yl)methyl]-1H-pyrrolo[3,2-b]pyridin-2-yl}pyridin-2-yl)acetamide] | 8.47 | 0.001
CC(=O)Nc1cc(-c2[nH]c3c(CN4CCOCC4)ccnc3c2-c2cccc(C(F)F)n2)ccn1 [Example 140, N-(4-{3-[6-(Difluoromethyl)pyridin-2-yl]-7-(morpholin-4-ylmethyl)-1H-pyrrolo[3,2-b]pyridin-2-yl}pyridin-2-yl)acetamide] | 7.6 | 0.001
CC(=O)Nc1cc(-c2[nH]c3c(CN(C)C)ccnc3c2-c2cccc(C(F)F)n2)ccn1 [Example 141, N-(4-{3-[6-(Difluoromethyl)pyridin-2-yl]-7-[(dimethylamino)methyl]-1H-pyrrolo[3,2-b]pyridin-2-yl}pyridin-2-yl)acetamide] | 27.3 | 0.003
CC(=O)Nc1cc(-c2[nH]c3c(CO)ccnc3c2-c2cccc(C(F)F)n2)ccn1 [Example 142, N-(4-{3-[6-(Difluoromethyl)pyridin-2-yl]-7-(hydroxymethyl)-1H-pyrrolo[3,2-b]pyridin-2-yl}pyridin-2-yl)acetamide] | 7.81 | 0.001
CC(=O)Nc1cc(-c2[nH]c3c(C(C)O)ccnc3c2-c2cccc(C(F)F)n2)ccn1 (centres unmarked) [Example 143, N-(4-{3-[6-(Difluoromethyl)pyridin-2-yl]-7-(1-hydroxyethyl)-1H-pyrrolo[3,2-b]pyridin-2-yl}pyridin-2-yl)acetamide] | 2.53 | 0.001
CC(=O)Nc1cc(-c2[nH]c3c(C(O)C(C)C)ccnc3c2-c2cccc(C(F)F)n2)ccn1 (centres unmarked) [Example 144, N-(4-{3-[6-(Difluoromethyl)pyridin-2-yl]-7-(1-hydroxy-2-methylpropyl)-1H-pyrrolo[3,2-b]pyridin-2-yl}pyridin-2-yl)acetamide] | 0.361 | 0.001
[2H]C([2H])([2H])C(O)c1ccnc2c(-c3cccc(C(F)F)n3)c(-c3ccnc(NC(C)=O)c3)[nH]c12 (centres unmarked) [Example 145, N-(4-{3-[6-(Difluoromethyl)pyridin-2-yl]-7-[1-hydroxy(2,2,2-2H)ethyl]-1H-pyrrolo[3,2-b]pyridin-2-yl}pyridin-2-yl)acetamide] | 2.94 | 0.002
CC(=O)Nc1cc(-c2[nH]c3c(C(O)C(F)F)ccnc3c2-c2cccc(C(F)F)n2)ccn1 (centres unmarked) [Example 148, N-{4-[7-(2,2-Difluoro-1-hydroxyethyl)-3-[6-(difluoromethyl)pyridin-2-yl]-1H-pyrrolo[3,2-b]pyridin-2-yl]pyridin-2-yl}acetamide] | 0.484 | 0.001
CC(=O)Nc1cc(-c2[nH]c3c(C(F)F)ccnc3c2-c2cccc(C(F)F)n2)ccn1 [Example 149, N-{4-[7-(Difluoromethyl)-3-[6-(difluoromethyl)pyridin-2-yl]-1H-pyrrolo[3,2-b]pyridin-2-yl]pyridin-2-yl}acetamide] | 8.37 | 0.002
CC(=O)Nc1cc(-c2[nH]c3c(CF)ccnc3c2-c2cccc(C(F)F)n2)ccn1 [Example 150, N-(4-{3-[6-(Difluoromethyl)pyridin-2-yl]-7-(fluoromethyl)-1H-pyrrolo[3,2-b]pyridin-2-yl}-pyridin-2-yl)acetamide] | 6.08 | 0.001
CNCc1ccnc2c(-c3cccc(C(F)F)n3)c(-c3ccnc(NC(C)=O)c3)[nH]c12 [Example 151, N-(4-{3-[6-(Difluoromethyl)pyridin-2-yl]-7-[(methylamino)methyl]-1H-pyrrolo[3,2-b]pyridin-2-yl}pyridin-2-yl)acetamide] | > 15 | 0.01
CC(=O)Nc1cc(-c2[nH]c3c(CN4CC(F)(F)C4)ccnc3c2-c2cccc(C(F)F)n2)ccn1 [Example 152, N-(4-{7-[(3,3-Difluoroazetidin-1-yl)methyl]-3-[6-(difluoromethyl)pyridin-2-yl]-1H-pyrrolo[3,2-b]pyridin-2-yl}pyridin-2-yl)acetamide] | 4.09 | 0.002
CC(=O)Nc1cc(-c2[nH]c3c(C(C)(C)O)ccnc3c2-c2cccc(C(F)F)n2)ccn1 [Example 154, N-(4-{3-[6-(Difluoromethyl)pyridin-2-yl]-7-(2-hydroxypropan-2-yl)-1H-pyrrolo[3,2-b]pyridin-2-yl}pyridin-2-yl)acetamide] | 1.77 | 0.001
CC(=O)Nc1cc(-c2[nH]c3c(CCO)ccnc3c2-c2cccc(C(F)F)n2)ccn1 [Example 155, N-(4-{3-[6-(Difluoromethyl)pyridin-2-yl]-7-(2-hydroxyethyl)-1H-pyrrolo[3,2-b]pyridin-2-yl}pyridin-2-yl)acetamide] | 3.47 | 0.001
CC(=O)Nc1cc(-c2[nH]c3c(N4CCCC4)ccnc3c2-c2cccc(C(F)F)n2)ccn1 [Example 156, N-(4-{3-[6-(Difluoromethyl)pyridin-2-yl]-7-(pyrrolidin-1-yl)-1H-pyrrolo[3,2-b]pyridin-2-yl}pyridin-2-yl)acetamide] | > 15 | 0.188
COc1ccc(-c2c(-c3ccnc(NC(C)=O)c3)[nH]c3cc(NC(C)=O)cnc23)nc1 [Example 157, N-(4-(6-Acetamido-3-(5-methoxypyridin-2-yl)-1H-pyrrolo[3,2-b]pyridin-2-yl)pyridin-2-yl)acetamide] | > 15 | 0.0013
COc1ccc(-c2c(-c3ccnc(NC(C)=O)c3)[nH]c3cc(N4CCC(OC)CC4)cnc23)nc1 [Example 158, N-(4-(6-(4-Methoxypiperidin-1-yl)-3-(5-methoxypyridin-2-yl)-1H-pyrrolo[3,2-b]pyridin-2-yl)pyridin-2-yl)acetamide] | > 15 | 0.0163
COc1ccc(-c2c(-c3ccnc(NC(C)=O)c3)[nH]c3cc(N4CCC(NC(C)=O)CC4)cnc23)nc1 [Example 159, N-(4-(6-(4-Acetamidopiperidin-1-yl)-3-(5-methoxypyridin-2-yl)-1H-pyrrolo[3,2-b]pyridin-2-yl)pyridin-2-yl)acetamide] | > 15 | 0.0311
COc1ccc(-c2c(-c3ccnc(NC(C)=O)c3)[nH]c3cc(N4CCC(CO)CC4)cnc23)nc1 [Example 161, N-(4-(6-(4-(Hydroxymethyl)piperidin-l-yl)-3-(5-methoxypyridin-2-yl)-1H-pyrrolo[3,2-b]pyridin-2-yl)pyridin-2-yl)acetamide] | > 15 | 0.0126
COc1ccc(-c2c(-c3ccnc(NC(C)=O)c3)[nH]c3cc(N4CCC[C@H]4CO)cnc23)nc1 [Example 162, (S)-N-(4-(6-(2-(Hydroxymethyl)pyrrolidin-1-yl)-3-(5-methoxypyridin-2-yl)-1H-pyrrolo[3,2-b]pyridin-2-yl)pyridin-2-yl)acetamide] | > 15 | 0.0279
COc1ccc(-c2c(-c3ccnc(NC(C)=O)c3)[nH]c3cc(N4CCC[C@@H]4CO)cnc23)nc1 [Example 163, (R)-N-(4-(6-(2-(Hydroxymethyl)pyrrolidin-l-yl)-3-(5-methoxypyridin-2-yl)-1H-pyrrolo[3,2-b]pyridin-2-yl)pyridin-2-yl)acetamide] | > 15 | 0.0304
